Reference: the NIST ThermoML archive (doi:10.1016/j.tca.2015.08.032)
Several values for one entry are separate records, joined by “and”; a condition that tells them apart may be missing. Equal entries are not always repeated. Numbers after ± are expanded uncertainties.

Columns and labels:
[1] = for mass density / viscosity: 101.33 kPa, Liquid; for mass density: Pycnometric method; for Normal melting temperature: Crystal, DTA; for viscosity: Cone and plate viscometry
[2] = molar heat capacity at constant pressure; conditions: 101.33 kPa, Liquid, Small sample (50 mg) DSC

Cn1cc[n+](CC(Br)CN=[N+]=[N-])c1.[Br-] (stereo not given) [1-(3-azido-2-bromopropyl)-3-methyl-3H-imidazol-1-ium bromide]
Conditions	mass density [kg/m3]
[1], 298 K	1340 ± 10

Conditions	Normal melting temperature [°C]
[1]	17 ± 1

C=Cn1cc[n+](CC(C[n+]2ccn(C)c2)N=[N+]=[N-])c1.N#C[N-]C#N.N#C[N-]C#N (stereo not given)
Conditions	mass density [kg/m3]	molar heat capacity at constant pressure [J/K/mol]	viscosity [mPa·s]
[1], 298 K	1490 ± 20	–	83.9 ± 9.5
[1], 298.9 K	–	–	66.3 ± 7.3
[1], 300 K	–	–	58.4 ± 6.2
[1], 300.9 K	–	–	53 ± 5.5
[1], 303 K	–	–	45.8 ± 4.8
[1], 307.9 K	–	–	35.6 ± 3.7
[1], 312.9 K	–	–	29.9 ± 3.1
[1], 317.9 K	–	–	26.2 ± 2.7
[1], 322.9 K	–	–	23.4 ± 2.4
[1], 327.9 K	–	–	20.8 ± 2.1
[1], 332.9 K	–	–	18.7 ± 1.9
[1], 337.9 K	–	–	17.1 ± 1.8
[1], 342.9 K	–	–	16.4 ± 1.7
[1], 347.9 K	–	–	15.8 ± 1.6
[1], 353 K	–	–	15.2 ± 1.6
[1], 357.9 K	–	–	14.6 ± 1.5
[1], 362.9 K	–	–	14 ± 1.4
[2], 298 K	–	400 ± 25	–
[2], 303 K	–	409.7 ± 25	–
[2], 323 K	–	452 ± 28	–

Conditions	Normal melting temperature [°C]
[1]	19 ± 1

Cn1cc[n+](CC(CBr)N=[N+]=[N-])c1.[Br-] (stereo not given) [1-(2-azido-3-bromopropyl)-3-methyl-3H-imidazol-1-ium bromide]
Conditions	mass density [kg/m3]
[1], 298 K	1360 ± 10

Conditions	Normal melting temperature [°C]
[1]	10 ± 1

C=Cn1cc[n+](CC(C[n+]2ccn(C)c2)N=[N+]=[N-])c1.[Br-].[Br-] (stereo not given)
Conditions	mass density [kg/m3]
[1], 298 K	1560 ± 20

Conditions	Normal melting temperature [°C]
[1]	23 ± 1

Cn1cc[n+](CC(CBr)N=[N+]=[N-])c1.N#C[N-]C#N (stereo not given)
[1]
Conditions	mass density [kg/m3]	viscosity
298 K	1310 ± 10	57.01 ± 5.9 mPa·s and 56.9 ± 5.9 mPa·s
299 K	–	53.28 ± 5.5 mPa·s
300 K	–	49.6 ± 5.2 mPa·s and 49.44 ± 5.2 mPa·s
301 K	–	46.03 ± 4.8 mPa·s
302 K	–	42 ± 4.4 mPa·s and 42.05 ± 4.4 mPa·s
303.1 K	–	38.84 ± 4 mPa·s
304 K	–	35.9 ± 3.7 mPa·s and 35.89 ± 3.7 mPa·s
306 K	–	30.94 ± 3.2 mPa·s
306.1 K	–	30.9 ± 3.2 mPa·s
307.9 K	–	26.97 ± 2.8 mPa·s and 26.9 ± 2.8 mPa·s and 26.98 ± 2.8 mPa·s
309.8 K	–	23.3 ± 2.4 mPa·s
313.9 K	–	17.9 ± 1.9 mPa·s
317.9 K	–	13.9 ± 1.4 mPa·s
322 K	–	10.8 ± 1.1 mPa·s
325.9 K	–	8.8 ± 0.9 mPa·s
331.8 K	–	5.9 ± 0.6 mPa·s
336 K	–	4.8 ± 0.5 mPa·s
339.9 K	–	4.1 ± 0.4 mPa·s
344 K	–	3.5 ± 0.4 mPa·s
347.9 K	–	3.1 ± 0.3 mPa·s
353 K	–	2.5 ± 0.3 mPa·s
357.9 K	–	2.2 ± 0.2 mPa·s
361.9 K	–	2 ± 0.2 mPa·s

Conditions	Normal melting temperature [°C]
[1]	-2 ± 1

Cn1cc[n+](CC(Br)CN=[N+]=[N-])c1.N#C[N-]C#N (stereo not given)
Conditions	mass density [kg/m3]
[1], 298 K	1280 ± 10

Conditions	Normal melting temperature [°C]
[1]	6 ± 1
